From ChEMBL document CHEMBL1201862, “PubChem BioAssay data set” (2004)
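Method: 48-hour compound exposure of cells in 96-well plates, five concentrations, linear interpolation of endpoints. Here, GI50 denotes the concentration required for 50% inhibition of growth.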 The source made the active and inactive calls. Rule as the data show it: active = GI50 up to about 1.1 µM and inactive = higher.

How the values were obtained:
Assay in all cases: DTP human tumour cell line panel, 48 h
OVCAR-4 = system: OVCAR-4
IGROV-1 = system: IGROV-1
BT-549 = system: BT-549
MCF7 = system: MCF7
HCT-15 = system: HCT-15
SK-MEL-2 = system: SK-MEL-2
MOLT-4 = system: MOLT-4
SN12C = system: SN12C
PC-3 = system: PC-3
UACC-257 = system: UACC-257
SK-MEL-28 = system: SK-MEL-28
Malme-3M = system: Malme-3M
COLO 205 = system: COLO 205
NCI-H226 = system: NCI-H226
OVCAR-5 = system: OVCAR-5
U-251 = system: U-251
CAKI-1 = system: CAKI-1
SF-539 = system: SF-539
HOP-92 = system: HOP-92
SK-MEL-5 = system: SK-MEL-5

SMILES	GI50 (OVCAR-4)	GI50 (IGROV-1)	GI50 (BT-549)	GI50 (MCF7)	GI50 (HCT-15) [µM]	GI50 (SK-MEL-2)	GI50 (MOLT-4)	GI50 (SN12C)	GI50 (PC-3)	GI50 (UACC-257)	GI50 (SK-MEL-28)	GI50 (Malme-3M)	GI50 (COLO 205)	GI50 (NCI-H226)	GI50 (OVCAR-5)	GI50 (U-251)	GI50 (CAKI-1)	GI50 (SF-539)	GI50 (HOP-92)	GI50 (SK-MEL-5)
CC1(c2nc3cc(Cl)c(Cl)cc3[nH]2)CCC(C(=O)O)C(C)(C)O1 (stereo not given)	78.9 µM (inactive)	> 100 µM (inactive)	> 100 µM (inactive)	> 100 µM (inactive)	> 100	> 100 µM (inactive)	> 100 µM (inactive)	> 100 µM (inactive)	> 100 µM (inactive)	> 100 µM (inactive)	> 100 µM (inactive)	> 100 µM (inactive)	> 100 µM (inactive)	> 100 µM (inactive)	> 100 µM (inactive)	> 100 µM (inactive)	> 100 µM (inactive)	> 100 µM (inactive)	> 100 µM (inactive)	> 100 µM (inactive)
N#Cc1c(C#N)c(SSc2c(C#N)c(C#N)c(N)n2-c2cccc3ccccc23)n(-c2cccc3ccccc23)c1N	6.01 µM (inactive)	7.45 µM (inactive)	5.83 µM (inactive)	3.47 µM (inactive)	1.98	15.3 µM (inactive)	2.63 µM (inactive)	12 µM (inactive)	17.4 µM (inactive)	5.62 µM (inactive)	6.03 µM (inactive)	1.85 µM (inactive)	3.67 µM (inactive)	30.2 µM (inactive)	24.2 µM (inactive)	19.7 µM (inactive)	8.05 µM (inactive)	15.7 µM (inactive)	4.71 µM (inactive)	20.2 µM (inactive)
O=C1/C(=C\c2cccc(Oc3ccccc3)c2)S(=O)(=O)C(c2ccccc2)N1c1ccccc1Cl (stereo not given)	15.4 µM (inactive)	17.1 µM (inactive)	43.1 µM (inactive)	21.9 µM (inactive)	31.2	26 µM (inactive)	15.1 µM (inactive)	23 µM (inactive)	29 µM (inactive)	28.6 µM (inactive)	38.9 µM (inactive)	32.6 µM (inactive)	17.6 µM (inactive)	29.6 µM (inactive)	33.7 µM (inactive)	27.9 µM (inactive)	32.6 µM (inactive)	5.83 µM (inactive)	17.9 µM (inactive)	17.4 µM (inactive)
Nc1nncs1	853 µM (inactive)	2580 µM (inactive)	1940 µM (inactive)	2480 µM (inactive)	853	> 5000 µM (inactive)	695 µM (inactive)	3040 µM (inactive)	2610 µM (inactive)	705 µM (inactive)	1980 µM (inactive)	3590 µM (inactive)	456 µM (inactive)	3480 µM (inactive)	1870 µM (inactive)	3100 µM (inactive)	1760 µM (inactive)	3560 µM (inactive)	2260 µM (inactive)	2360 µM (inactive)
COc1cc(OC)c(/C=C\c2cc(/C=C/c3c(OC)cc(OC)cc3OC)c3ccccc3[n+]2C)c(OC)c1	8.39 µM (inactive)	3.24 µM (inactive)	4.1 µM (inactive)	2.86 µM (inactive)	0.719	1.74 µM (inactive)	1.98 µM (inactive)	2.18 µM (inactive)	2.6 µM (inactive)	2.92 µM (inactive)	3.39 µM (inactive)	1.96 µM (inactive)	1.67 µM (inactive)	5.96 µM (inactive)	13.2 µM (inactive)	1.28 µM (inactive)	6.61 µM (inactive)	2.22 µM (inactive)	2.95 µM (inactive)	1.31 µM (inactive)
